Tests used:
Assay in all cases: relative viability (nuclei count vs DMSO), 5 days (fraction); higher = more cells survive
[1] = compound: CN(C)C/C=C/C(=O)Nc1cc2c(Nc3ccc(F)c(Cl)c3)ncnc2cc1O[C@H]1CCOC1 [Afatinib] + CS(=O)(=O)N1CCN(Cc2cc3nc(-c4cccc5[nH]ncc45)nc(N4CCOCC4)c3s2)CC1 [Pictilisib] (partner 1 µM)
Outline: (§1)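 Nuclei were stained with Hoechst during a one-step fixation (final 0.05% Triton X-100, 1% formaldehyde, 1 ug/ml Hoechst) carried out 5 days after dosing, then counted on 4× images. The cells, lung cancer lines in 1536-well plates, had been dosed by pin tool the day after seeding with one drug alone or a fixed anchor-drug dose plus five library-drug doses (not always all listed) in √10 steps. Relative viability is the nuclei count in treated wells divided by that in vehicle wells, and each value is the median of duplicate plates.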

[2] = compound: CN(C)C/C=C/C(=O)Nc1cc2c(Nc3ccc(F)c(Cl)c3)ncnc2cc1O[C@H]1CCOC1 [Afatinib] + CC1(C)CCC(c2ccc(Cl)cc2)=C(CN2CCN(c3ccc(C(=O)NS(=O)(=O)c4ccc(N[C@H](CCN5CCOCC5)CSc5ccccc5)c(S(=O)(=O)C(F)(F)F)c4)cc3)CC2)C1 [Navitoclax] (partner 0.5 µM)
Outline: as §1

[3] = compound: CN(C)C/C=C/C(=O)Nc1cc2c(Nc3ccc(F)c(Cl)c3)ncnc2cc1O[C@H]1CCOC1 [Afatinib] + CC(C)C[C@H](NC(=O)[C@H](Cc1ccccc1)NC(=O)c1cnccn1)B(O)O [Bortezomib] (partner 0.002 µM)
Outline: as §1

[4] = compound: CN(C)C/C=C/C(=O)Nc1cc2c(Nc3ccc(F)c(Cl)c3)ncnc2cc1O[C@H]1CCOC1 [Afatinib] + C[C@]1(O)C[C@@H](c2nc(-c3ccc4ccc(-c5ccccc5)nc4c3)c3c(N)nccn32)C1 [Linsitinib] (partner 1 µM)
Outline: as §1

[5] = compound: CN(C)C/C=C/C(=O)Nc1cc2c(Nc3ccc(F)c(Cl)c3)ncnc2cc1O[C@H]1CCOC1 [Afatinib] + O=C(c1cc(Cc2n[nH]c(=O)c3ccccc23)ccc1F)N1CCN(C(=O)C2CC2)CC1 [Olaparib] (partner 8 µM)
Outline: as §1

[6] = compound: CN(C)C/C=C/C(=O)Nc1cc2c(Nc3ccc(F)c(Cl)c3)ncnc2cc1O[C@H]1CCOC1 [Afatinib] + C[C@@H](Oc1cc(-c2cnn(C3CCNCC3)c2)cnc1N)c1c(Cl)ccc(F)c1Cl [Crizotinib] (partner 1 µM)
Outline: as §1

[7] = compound: CN(C)C/C=C/C(=O)Nc1cc2c(Nc3ccc(F)c(Cl)c3)ncnc2cc1O[C@H]1CCOC1 [Afatinib] + COc1cc2c(Oc3ccc(NC(=O)C4(C(=O)Nc5ccc(F)cc5)CC4)cc3F)ccnc2cc1OCCCN1CCOCC1 [Foretinib] (partner 0.25 µM)
Outline: as §1

[8] = compound: CN(C)C/C=C/C(=O)Nc1cc2c(Nc3ccc(F)c(Cl)c3)ncnc2cc1O[C@H]1CCOC1 [Afatinib] + Cc1nc(NC(=O)N2CCC[C@H]2C(N)=O)sc1-c1ccnc(C(C)(C)C(F)(F)F)c1 [Alpelisib] (partner 2 µM)
Outline: as §1

[9] = compound: CN(C)C/C=C/C(=O)Nc1cc2c(Nc3ccc(F)c(Cl)c3)ncnc2cc1O[C@H]1CCOC1 [Afatinib] + CS(=O)(=O)CCNCc1ccc(-c2ccc3ncnc(Nc4ccc(OCc5cccc(F)c5)c(Cl)c4)c3c2)o1 [Lapatinib] (partner 2 µM)
Outline: as §1

[10] = compound: CN(C)C/C=C/C(=O)Nc1cc2c(Nc3ccc(F)c(Cl)c3)ncnc2cc1O[C@H]1CCOC1 [Afatinib]
Outline: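 Lung cancer cell lines in 1536-well plates were exposed by pinning to five library-drug doses (not always all listed) √10 apart, following an overnight hold at 37 °C. MetaXpress counted Hoechst-stained nuclei from 4× images taken after 5 days without medium change. Viability is the median ratio of treated-well to vehicle-well nuclei across plates. Plates required control CV below 25% and at least one doubling.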

[11] = compound: CN(C)C/C=C/C(=O)Nc1cc2c(Nc3ccc(F)c(Cl)c3)ncnc2cc1O[C@H]1CCOC1 [Afatinib] + N=C(N)NC(=N)NCCc1ccccc1 [Phenformin] (partner 250 µM)
Outline: as §1

[12] = compound: CN(C)C/C=C/C(=O)Nc1cc2c(Nc3ccc(F)c(Cl)c3)ncnc2cc1O[C@H]1CCOC1 [Afatinib] + Cc1nc(Nc2ncc(C(=O)Nc3c(C)cccc3Cl)s2)cc(N2CCN(CCO)CC2)n1 [Dasatinib] (partner 0.075 µM)
Outline: as §1

[13] = compound: CN(C)C/C=C/C(=O)Nc1cc2c(Nc3ccc(F)c(Cl)c3)ncnc2cc1O[C@H]1CCOC1 [Afatinib] + Cc1cc(Nc2cc(N3CCN(C)CC3)nc(Sc3ccc(NC(=O)C4CC4)cc3)n2)n[nH]1 [Tozasertib] (partner 0.1 µM)
Outline: as §1

[14] = compound: CN(C)C/C=C/C(=O)Nc1cc2c(Nc3ccc(F)c(Cl)c3)ncnc2cc1O[C@H]1CCOC1 [Afatinib] + COc1cccc2cc(-c3nc([C@H]4CC[C@H](C(=O)O)CC4)n4ncnc(N)c34)[nH]c12 [OSI-027] (partner 0.5 µM)
Outline: as §1

[15] = compound: CN(C)C/C=C/C(=O)Nc1cc2c(Nc3ccc(F)c(Cl)c3)ncnc2cc1O[C@H]1CCOC1 [Afatinib] + CCNC(=O)c1noc(-c2cc(C(C)C)c(O)cc2O)c1-c1ccc(CN2CCOCC2)cc1 [Luminespib] (partner 0.01 µM)
Outline: as §1

Q: For EBC-1, which relative viability ([1]; first compound 0.005 µM) is on record?
A: 0.391

Q: And the relative viability ([1]; first compound 0.01581 µM)?
A: 0.386

Q: What about the relative viability ([1]; first compound 0.05 µM) of the same cell line?
A: 0.465

Q: And the relative viability ([1]; first compound 0.1581 µM)?
A: 0.358

Q: What about the relative viability ([1]; first compound 0.5 µM) of the same cell line?
A: 0.372

Q: And the relative viability ([2]; first compound 0.005 µM)?
A: 0.507

Q: What about the relative viability ([2]; first compound 0.01581 µM) of the same cell line?
A: 0.457

Q: And the relative viability ([2]; first compound 0.05 µM)?
A: 0.465

Q: And the relative viability ([2]; first compound 0.1581 µM)?
A: 0.396

Q: And the relative viability ([2]; first compound 0.5 µM)?
A: 0.343

Q: What about the relative viability ([3]; first compound 0.005 µM) of the same cell line?
A: 0.594

Q: And the relative viability ([3]; first compound 0.01581 µM)?
A: 0.59

Q: What about the relative viability ([3]; first compound 0.05 µM) of the same cell line?
A: 0.562

Q: What about the relative viability ([3]; first compound 0.1581 µM) of the same cell line?
A: 0.507

Q: And the relative viability ([3]; first compound 0.5 µM)?
A: 0.705

Q: What about the relative viability ([4]; first compound 0.005 µM) of the same cell line?
A: 0.72

Q: What about the relative viability ([4]; first compound 0.01581 µM) of the same cell line?
A: 0.827

Q: And the relative viability ([4]; first compound 0.05 µM)?
A: 0.903

Q: What about the relative viability ([4]; first compound 0.1581 µM) of the same cell line?
A: 0.783

Q: And the relative viability ([4]; first compound 0.5 µM)?
A: 0.903

Q: And the relative viability ([5]; first compound 0.005 µM)?
A: 0.714

Q: And the relative viability ([5]; first compound 0.01581 µM)?
A: 0.76

Q: What about the relative viability ([5]; first compound 0.05 µM) of the same cell line?
A: 0.745

Q: What about the relative viability ([5]; first compound 0.1581 µM) of the same cell line?
A: 0.676

Q: And the relative viability ([5]; first compound 0.5 µM)?
A: 0.734

Q: And the relative viability ([6]; first compound 0.005 µM)?
A: 0.193

Q: And the relative viability ([6]; first compound 0.01581 µM)?
A: 0.174

Q: What about the relative viability ([6]; first compound 0.05 µM) of the same cell line?
A: 0.191

Q: And the relative viability ([6]; first compound 0.1581 µM)?
A: 0.189

Q: What about the relative viability ([6]; first compound 0.5 µM) of the same cell line?
A: 0.209

Q: What about the relative viability ([7]; first compound 0.005 µM) of the same cell line?
A: 0.105

Q: And the relative viability ([7]; first compound 0.01581 µM)?
A: 0.0995

Q: What about the relative viability ([7]; first compound 0.05 µM) of the same cell line?
A: 0.0925

Q: What about the relative viability ([7]; first compound 0.1581 µM) of the same cell line?
A: 0.109

Q: And the relative viability ([7]; first compound 0.5 µM)?
A: 0.0966

Q: And the relative viability ([8]; first compound 0.005 µM)?
A: 0.787

Q: What about the relative viability ([8]; first compound 0.01581 µM) of the same cell line?
A: 0.835

Q: What about the relative viability ([8]; first compound 0.05 µM) of the same cell line?
A: 0.905

Q: What about the relative viability ([8]; first compound 0.1581 µM) of the same cell line?
A: 0.81

Q: What about the relative viability ([8]; first compound 0.5 µM) of the same cell line?
A: 0.915

Q: And the relative viability ([9]; first compound 0.005 µM)?
A: 0.246

Q: And the relative viability ([9]; first compound 0.01581 µM)?
A: 0.196

Q: What about the relative viability ([9]; first compound 0.05 µM) of the same cell line?
A: 0.198

Q: And the relative viability ([9]; first compound 0.1581 µM)?
A: 0.195

Q: And the relative viability ([9]; first compound 0.5 µM)?
A: 0.212

Q: What about the relative viability ([10]; 0.005 µM) of the same cell line?
A: 1.02

Q: And the relative viability ([10]; 0.01581 µM)?
A: 0.976

Q: What about the relative viability ([10]; 0.05 µM) of the same cell line?
A: 1.02

Q: What about the relative viability ([10]; 0.1581 µM) of the same cell line?
A: 0.969

Q: And the relative viability ([10]; 0.5 µM)?
A: 1.01

Q: For NCI-H1623, which relative viability ([11]; first compound 0.005 µM) is on record?
A: 0.548

Q: What about the relative viability ([11]; first compound 0.01581 µM) of the same cell line?
A: 0.499

Q: What about the relative viability ([11]; first compound 0.05 µM) of the same cell line?
A: 0.36

Q: And the relative viability ([11]; first compound 0.1581 µM)?
A: 0.16

Q: What about the relative viability ([11]; first compound 0.5 µM) of the same cell line?
A: 0.431

Q: And the relative viability ([12]; first compound 0.005 µM)?
A: 0.446

Q: And the relative viability ([12]; first compound 0.01581 µM)?
A: 0.472

Q: And the relative viability ([12]; first compound 0.05 µM)?
A: 0.375

Q: What about the relative viability ([12]; first compound 0.1581 µM) of the same cell line?
A: 0.198

Q: And the relative viability ([12]; first compound 0.5 µM)?
A: 0.226

Q: And the relative viability ([13]; first compound 0.005 µM)?
A: 0.397

Q: What about the relative viability ([13]; first compound 0.01581 µM) of the same cell line?
A: 0.346

Q: And the relative viability ([13]; first compound 0.05 µM)?
A: 0.285

Q: And the relative viability ([13]; first compound 0.1581 µM)?
A: 0.121

Q: And the relative viability ([13]; first compound 0.5 µM)?
A: 0.148

Q: And the relative viability ([7]; first compound 0.005 µM)?
A: 0.694

Q: What about the relative viability ([7]; first compound 0.01581 µM) of the same cell line?
A: 0.597

Q: What about the relative viability ([7]; first compound 0.05 µM) of the same cell line?
A: 0.414

Q: And the relative viability ([7]; first compound 0.1581 µM)?
A: 0.213

Q: What about the relative viability ([14]; first compound 0.005 µM) of the same cell line?
A: 0.394

Q: And the relative viability ([14]; first compound 0.01581 µM)?
A: 0.324

Q: And the relative viability ([14]; first compound 0.05 µM)?
A: 0.255

Q: And the relative viability ([14]; first compound 0.1581 µM)?
A: 0.189

Q: What about the relative viability ([14]; first compound 0.5 µM) of the same cell line?
A: 0.243

Q: What about the relative viability ([15]; first compound 0.005 µM) of the same cell line?
A: 0.489

Q: And the relative viability ([15]; first compound 0.01581 µM)?
A: 0.454

Q: What about the relative viability ([15]; first compound 0.05 µM) of the same cell line?
A: 0.325

Q: What about the relative viability ([15]; first compound 0.1581 µM) of the same cell line?
A: 0.214

Q: And the relative viability ([15]; first compound 0.5 µM)?
A: 0.281

Q: And the relative viability ([10]; 0.005 µM)?
A: 0.822

Q: What about the relative viability ([10]; 0.01581 µM) of the same cell line?
A: 0.813

Q: And the relative viability ([10]; 0.05 µM)?
A: 0.42

Q: And the relative viability ([10]; 0.1581 µM)?
A: 0.221

Q: And the relative viability ([10]; 0.5 µM)?
A: 0.267

— the supplement of paper PMC10307832
